Assay results: ChEMBL document CHEMBL1148812, “4-[omega-[4-arylpiperazin-1-yl]alkoxy]phenyl)imidazo[1,2-a]pyridine derivatives: fluorescent high-affinity dopamine D3 receptor ligands as potential probes for receptor visualization” (J Med Chem, 2007)

Columns and labels:
[1] = target: T1, D(2) dopamine receptor (Homo sapiens, UniProt P14416)
[2] = target: D(3) dopamine receptor (Homo sapiens, UniProt P35462)
Description: Displacement of [3H]spiroperidol from human cloned dopamine D3 receptor

[3] = target: T1, D(2) dopamine receptor; assay: Displacement of [3H]spiroperidol from human cloned dopamine D2L receptor at 10 uM

Chain of D(3) dopamine receptor (P35462 whole entry): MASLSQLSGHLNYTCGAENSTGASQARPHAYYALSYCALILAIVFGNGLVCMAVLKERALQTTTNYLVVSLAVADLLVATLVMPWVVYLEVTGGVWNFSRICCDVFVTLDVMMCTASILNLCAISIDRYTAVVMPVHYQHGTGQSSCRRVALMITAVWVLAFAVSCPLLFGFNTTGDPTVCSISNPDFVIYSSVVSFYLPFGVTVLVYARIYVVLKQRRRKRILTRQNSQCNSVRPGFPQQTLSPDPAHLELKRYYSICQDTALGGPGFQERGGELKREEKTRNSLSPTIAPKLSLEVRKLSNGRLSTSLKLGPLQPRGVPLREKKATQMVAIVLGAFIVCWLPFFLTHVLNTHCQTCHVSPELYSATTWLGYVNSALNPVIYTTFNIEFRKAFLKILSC
T1 sequence (P14416 whole entry): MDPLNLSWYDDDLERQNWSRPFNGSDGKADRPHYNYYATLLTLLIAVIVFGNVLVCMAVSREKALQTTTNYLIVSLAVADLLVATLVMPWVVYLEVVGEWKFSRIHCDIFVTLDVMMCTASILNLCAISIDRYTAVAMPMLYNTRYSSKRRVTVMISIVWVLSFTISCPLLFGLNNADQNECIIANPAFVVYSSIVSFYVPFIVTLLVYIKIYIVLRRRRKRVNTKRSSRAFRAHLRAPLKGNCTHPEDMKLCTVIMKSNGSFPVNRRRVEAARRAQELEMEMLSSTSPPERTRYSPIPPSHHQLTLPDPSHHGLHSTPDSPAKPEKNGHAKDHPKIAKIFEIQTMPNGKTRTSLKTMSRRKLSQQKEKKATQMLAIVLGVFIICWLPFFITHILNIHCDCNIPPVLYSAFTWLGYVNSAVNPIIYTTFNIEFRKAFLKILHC

Ki [1] | Ki [2] | inhibition [3] | Compound
44 nM | 156 nM | – | Clc1cccc(N2CCN(CCCOc3ccc(-c4cn5ccccc5n4)cc3)CC2)c1Cl
125 nM | 225 nM | – | Cc1cccn2cc(-c3ccc(OCCCN4CCN(c5cccc(Cl)c5Cl)CC4)cc3)nc12
52 nM | 40 nM | – | COc1ccccc1N1CCN(CCCCOc2ccc(-c3cn4ccc(C)cc4n3)cc2)CC1
68 nM | 38 nM | – | Clc1cccc(N2CCN(CCCCOc3ccc(-c4cn5ccccc5n4)cc3)CC2)c1Cl
159 nM | 385 nM | – | COc1ccccc1N1CCN(CCCCOc2ccc(-c3cn4cccc(C)c4n3)cc2)CC1
49 nM | 50 nM | – | COc1ccccc1N1CCN(CCCOc2ccc(-c3cn4cccc(C)c4n3)cc2)CC1
149 nM | 8 nM | – | Cc1ccc2nc(-c3ccc(OCCCCN4CCN(c5cccc(Cl)c5Cl)CC4)cc3)cn2c1
560 nM | 54.4 nM | – | Cc1cccn2cc(-c3ccc(OCCCCN4CCN(c5cccc(Cl)c5Cl)CC4)cc3)nc12
78 nM | 176 nM | – | COc1ccccc1N1CCN(CCCOc2ccc(-c3cn4cc(C)ccc4n3)cc2)CC1
47 nM | 146 nM | – | COc1ccccc1N1CCN(CCCCOc2ccc(-c3cn4cc(C)ccc4n3)cc2)CC1
83 nM | 8 nM | – | Cc1ccn2cc(-c3ccc(OCCCN4CCN(c5cccc(Cl)c5Cl)CC4)cc3)nc2c1
– | 28.9 nM | 31% | Cc1ccc2nc(-c3ccc(OCCCN4CCN(c5cccc(Cl)c5Cl)CC4)cc3)cn2c1
78 nM | 71 nM | – | COc1ccccc1N1CCN(CCCOc2ccc(-c3cn4ccc(C)cc4n3)cc2)CC1
111 nM | 60 nM | – | Cc1ccn2cc(-c3ccc(OCCCCN4CCN(c5cccc(Cl)c5Cl)CC4)cc3)nc2c1

Compound | Ki [1] | Ki [2] | inhibition [3]
COc1ccccc1N1CCN(CCCOc2ccc(-c3cn4ccccc4n3)cc2)CC1 | 49 nM | 1.6 nM | –
COc1ccccc1N1CCN(CCCCOc2ccc(-c3cn4ccccc4n3)cc2)CC1 | 179 nM | 0.72 nM | –
